Data: US20210361680A1, “INOSITOL-BASED IMMUNOTHERAPIES” (NormOxys, Inc., priority 2018, published 2021)
Entries after “also recorded” stand apart in the source; their conditions may differ.

Columns and labels:
4T1 mammary carcinoma = assay: Tumor growth of 4T1 mammary carcinoma in BALB/c-by mice under ITPP treatment; type: in vivo, mouse
Description: (§1) 4T1murine mammary carcinoma (10^4 cells as spheroid plug in Matrigel) cells were injected in the mammary fat pad of BALBc/by mice.
(§2) ITPP was injected intraperitoneally (1.5 g/kg: in saline) twice a week over 3 weeks. It was started on day7 and repeated on day 8 post tumor inoculation (day 0). The following serial treatments were applied on days 15 and 16, 21 and 22. Tumors were extracted and weighted at the indicated times.

activated NK cells = assay: Flow cytometry of activated NK cells in 4T1 mammary carcinoma; type: in vivo, mouse; details: 4T1 cells bearing mice
Description: as §1, §2
(§3) Tumor samples were immediately transferred in to PBS on ice. Biopsies were cut into small pieces and filtered through cell strainer after being dissociated by collagenase/dispase (Gibco). The samples were depleted of erythrocytes by red blood lysis buffer (eBiosciences).
(§4) Single cell suspensions were stained with mAbs for 1 h at 4° C. Acquisition was performed by one to four color flow cytometry using FACS LSR (Becton Dickinson). Dead cells were excluded on scatter profile. Data were acquired using CellQuest software (Becton Dickinson) on at least 100,000 events. Data were expressed as dot plot or histogram when comparison of fluorescence intensity is needed.
(§5) The following directly conjugated rat anti-mouse mAbs were used for the FACS staining: CD45-PerCP, CD11b-APC, CCR4-PE, CCR5-PE, CCR7-PE, CCR1O-PE and CXCR4-PE were from BD Biosciences. CD49b-APC was from Biolegend. […]

CD47 = assay: Flow cytometry of CD47 expression in B16F10 tumors; type: in vivo, mouse; details: tumor B16F10 melanoma cells
Description: (§6) Murine B16F10 cells were implanted in C57BL6 or on Rj:NMRI-nu nude mice leg subcutaneously as we described previously by injecting a spheroid plug of 10^5 cells in 100 μl Matrigel (BD Biosciences).
as §2, §3, §4, §5

CTLA-4 = assay: Flow cytometry of CTLA-4 expression among CD45+ cells; type: in vivo, mouse
Description: as §2, §3, §4
The following directly conjugated rat anti-mouse mAbs were used for the FACS staining: CD45-PerCP, CD11b-APC, CCR4-PE, CCR5-PE, CCR7-PE, CCR1O-PE and CXCR4-PE were from BD Biosciences. CD49b-APC was from Biolegend. CD226-PE, CD4-FITC, CD25-APC, CD8a-FITC, PD-1-PE, CTLA-4-PE, PDL1-PE-Cy7, PDL2-FITC and CD47-APC were from eBiosciences. CD11c-FITC and GR1-FITC were from Milteny. CD206 was from Santa Cruz. […]

PD-L1 = assay: Flow cytometry of PD-L1 expression in tumor cell populations; type: in vivo, mouse
Description: as §6, §2, §3
(§7) In specified experiments, tumors were depleted from CD45+ and/or CD31+ cells by magnetic separation (Easy Sep magnet, StemCell Technologies Inc).
as §4
(§8) The following directly conjugated rat anti-mouse mAbs were used for the FACS staining: CD45-PerCP, CD11b-APC, CCR4-PE, CCR5-PE, CCR7-PE, CCR1O-PE and CXCR4-PE were from BD Biosciences. CD49b-APC was from Biolegend. CD226-PE, CD4-FITC, CD25-APC, CD8a-FITC, PD-1-PE, CTLA-4-PE, PDL1-PE-Cy7, PDL2-FITC and CD47-APC were from eBiosciences. CD11c-FITC and GR1-FITC were from Milteny. CD206 was from Santa Cruz. We used anti-mouse Foxp3 staining set PE (eBioscience) for Foxp3 staining.

CD45+CD11b+Gr1+ MDSCs = assay: Flow cytometry of MDSCs in B16F10 Luc melanoma; type: in vivo, mouse
Description: as §6, §2, §3, §4, §5

[1] = tested on: M2 (CD45+CD11c+CD206+) macrophages; assay: Flow cytometry of M2 macrophages in B16F10Luc melanoma; type: in vivo, mouse; details: melanoma tumor site
Description: as §6, §2, §3, §4, §5

PD-L2 = assay: Flow cytometry of PD-L2 expression in tumor cell populations; type: in vivo, mouse; details: for reduction of the expression of PD-L2: compared with PD-L1
Description: as §6, §2, §3, §7, §4, §8

B16F10 melanoma cells [2] = assay: Tumor growth of B16F10 melanoma in Rj:NMRI-nu nude mice under ITPP treatment; type: in vivo, mouse; details: ITPP 1.5 g/kg intraperitoneally, day 23, versus controls
Description: (§9) Murine B16F10 cells were implanted in C57BL6 or on Rj:NMRI-nu nude mice leg subcutaneously by injecting a plug of 10^5 cells in 100 μl Matrigel (BD Biosciences).
as §6, §2

CD31+ endothelial cells = assay: Flow cytometry of CD31+ endothelial cells in B16F10Luc melanoma; type: in vivo, mouse; details: treated versus non-treated tumors
Description: as §6, §2, §3, §4, §5

CCR10 = assay: Flow cytometry of CCR10 expression in the tumor site; type: in vivo, mouse
Description: as §6, §2, §3, §7, §4, §8

CCR7 = assay: Flow cytometry of CCR7 expression in the tumor site; type: in vivo, mouse; details: tumor cells
Description: as §6, §2, §3, §7
(§10) Single cell suspensions were stained with mAbs for 1 h at 4° C. Acquisition was performed by one to four color flow cytometry using FACS LSR (Becton Dickinson). Dead cells were excluded on scatter profile. Data were acquired using CellQuest software (Becton Dickinson) on at least 100,000 events. Data were expressed as dot plot or histogram when comparison of fluorescence intensity is needed. […]

[3] = tested on: M1 (CD45+CD11c+CD206−) macrophages; assay: Flow cytometry of M1 macrophages in B16F10 Luc melanoma; type: in vivo, mouse
Description: as §6, §2, §3, §4, §5

NK cells [4] = assay: Immunocytochemical labelling of NK cell infiltrate in B16F10 Luc tumors; type: in vivo, mouse; details: B16F10 Luc tumors extracted on day 23; non-treated: NK cells stuck in the vessels
Description: as §6, §2
Tumor tissues were embedded in tissue freezing medium (Tissue-Tek; Sakura) and snap frozen in liquid nitrogen. Tumor cryosections were fixed and stained with mouse anti-CD31 (rat monoclonal IgG2a; eBiosciences), anti-CD49b (Rat IgM; BD Pharmingen) or anti-Firefly Luciferase (Rabbit IgG; Abcam) before tetramethyl rhodamine isothiocyanate or fluorescein isothiocyanate secondary antibodies were added. Nuclei were stained with bisbenzimide H 33258 (Sigma-Aldrich).

NK cells [5] = assay: Flow cytometry of NK cells in B16F10Luc tumors, NRj:NMRI nude mice; type: in vivo, mouse; details: B16F10-Luc tumors in nude mice
Description: as §6, §2, §3, §4, §5

CCR5 = assay: Flow cytometry of CCR5 expression in the tumor site; type: in vivo, mouse
Description: as §6, §2, §3, §7, §10

CXCR4 = assay: Flow cytometry of CXCR4 expression in the tumor site; type: in vivo, mouse
Description: as §6, §2, §3, §7, §4, §8

[6] = tested on: CD45+CD4+CD25+FoxP3+ Treg cells; assay: Flow cytometry of Treg cells in B16F10Luc tumors; type: in vivo, mouse
Description: as §6, §2, §3, §4, §5

immune cells (CD45+) = assay: Flow cytometry of CD45+ immune cells in B16F10Luc tumors; type: in vivo, mouse; details: ITPP-treated versus control mice
Description: as §6, §2, §3, §4, §5

cells = details: cited from earlier work
CX3CR1 = assay: Flow cytometry of CX3CR1 expression in the tumor site; type: in vivo, mouse; details: endothelial enriched cell population
Description: as §6, §2, §3, §7, §4

[7] = tested on: M2 (CD45+CD11c+CD206+) macrophages; assay: Flow cytometry of M2 macrophages in 4T1 mammary carcinoma; type: in vivo, mouse
Description: as §1, §2, §3, §4, §5

Treg cells = assay: Flow cytometry of Treg cells in 4T1 mammary carcinoma; type: in vivo, mouse; details: 4T1 mammary carcinoma bearing BalbC mice
Description: as §1, §2, §3, §4, §5

CD45+CD4+CCR4+ Th2 cells = assay: Flow cytometry of Th2 cells in B16F10 Luc melanoma; type: in vivo, mouse
Description: as §6, §2, §3, §4, §5

PD-1 [8] = assay: Flow cytometry of PD-1 expressing CD45+ cells in 4T1 mammary carcinoma; type: in vivo, mouse
Description: as §1, §2, §3, §4, §5

[9] = in vivo; cited from earlier work
NK cells [10] = assay: Flow cytometry of NK cells in B16F10Luc tumors, C57BL6 mice; type: in vivo, mouse
Description: as §6, §2, §3, §4, §8

PD-1 [11] = assay: Flow cytometry of PD-1 expressing CD45+ cells in B16F10 melanoma; type: in vivo, mouse
Description: as §6, §2, §3, §4, §5

B16F10 melanoma cells [12] = assay: Tumor growth of B16F10 melanoma in C57BL6 mice under ITPP treatment; type: in vivo, mouse; details: day 23
Description: as §9, §6, §2

[13] = CD31+ endothelial cells of the tumor

O=P1(O)OC2C3OP(=O)(O)OP(=O)(O)OC3C3OP(=O)(O)OP(=O)(O)OC3C2OP(=O)(O)O1 (centres unmarked) [ITPP, myo-inositol tris pyrophosphate]
mammary carcinoma reduction (4T1 mammary carcinoma; 4T1, day 31, after arrest of treatment on day 21): up to 50%
tumor size (4T1 mammary carcinoma; 4T1 mammary carcinoma in BALB/c-by mice, ITPP 1.5 g/kg intraperitoneally, day 31, versus controls): reduction of the tumor size; also recorded: half size of the controls
recruitment of activated NK cells (activated NK cells): higher recruitment
intensity of CD47 expression (CD47): reduced
CTLA-4 expression (CTLA-4): No significant change
expression of PD-L1 (PD-L1; [13]): considerably reduced and less
expression of PD-L1 (PD-L1; immune CD45+ cell population): strongly reduced
expression of PD-L1 (PD-L1; separated CD45− cells): clear reduction
expression of PD-L1 (PD-L1; whole tumor cell populations): clear reduction
MDSCs proportion in the tumor (CD45+CD11b+Gr1+ MDSCs): reduced
proportion of M2 (CD45+CD11c+CD206+) macrophages [1]: reduced; also recorded: decreased
expression of PD-L2 (PD-L2; [13]): reduced and less
expression of PD-L2 (PD-L2; immune CD45+ cell population): strongly reduced
reduction of the expression of PD-L2 (PD-L2; separated CD45− cells): to a lesser extent
reduction of the expression of PD-L2 (PD-L2; whole tumor cell populations): to a lesser extent
tumor size (B16F10 melanoma cells [2]): reduction of the tumor size; also recorded: half size of the controls
proportion of CD31+ endothelial cells (CD31+ endothelial cells): higher; also recorded: increased
cells expressing CCR10 (CCR10; B16F10 cells): reduced
increase of cells expressing CCR10 (R) (CCR10; endothelial cells enriched population): 2
increase of cells expressing CCR10 (R) (CCR10; immune cells (CD45+)): 10
CCR7 expression (CCR7): total reduction
numbers of macrophages expressing the M1 (CD45+CD11c+CD206−) phenotype [3]: tendency to increase; also recorded: tended to increase
NK cell (CD49b+) infiltrate in the tumor (NK cells [4]): infiltrated the tumor mass
proportions of NK cells found in the tumor before and after ITPP treatments (R) (NK cells [5]): 2.25
CCR5 expression (CCR5; CD45+ population): inverse effect
CCR5 expression (CCR5; tumor cells): radical effect
CXCR4 expression (CXCR4; CD45+ cells): not affected
CXCR4 expression (CXCR4; endothelial enriched cell population): not affected
cells expressing CXCR4 (CXCR4; tumor cells): strongly reduced
proportions of CD45+CD4+CD25+FoxP3+ Treg cells [6]: very significantly decreased; also recorded: reduced
proportion of immune cells (CD45+) in the tumor (immune cells (CD45+)): higher
toxicity for cells treated separately (cells): not to be toxic
expression of the fractalkine receptor CX3CR1 (CX3CR1): induced expression
proportion of M2 (CD45+CD11c+CD206+) macrophages [7]: reduced; also recorded: decreased
Treg cell numbers (Treg cells): reducing effect; also recorded: reduced
proportion of Th2 cells (CD45+CD4+CCR4+) in the tumor site (CD45+CD4+CCR4+ Th2 cells): decrease; also recorded: reduced
CD45+PD-1+ cells among whole tumor populations (PD-1 [8]): increase; also recorded: enriched
toxicity for the animals [9]: not to be toxic
proportions of NK cells found in the tumor before and after ITPP treatments (R) (NK cells [10]; B16F10-Luc tumors in normal C57Bl6 mice): 2.25
number of NK cells in the tumor site (NK cells [10]; CD45+CD49+ NK cells, B16F10Luc tumors, C57BL6 mice): doubled
numbers of activated (CD45+CD49b+CD226+) NK cells (NK cells [10]; melanoma bearing mice, after ITPP treatment): increase
CD45+PD-1+ cells among whole tumor populations (PD-1 [11]): increase; also recorded: enriched
tumor size (B16F10 melanoma cells [12]; B16F10 melanoma in normal C57BL6 mice, ITPP 1.5 g/kg intraperitoneally, versus controls): reduction of the tumor size; also recorded: half size of the controls
tumor growth (B16F10 melanoma cells [12]; melanoma cells, treatments stopped on day 21): 50%
